Measurements from patent publication US20100184809A1, “Heterocyclic FXR Binding Compounds” (PHENEX PHARMACEUTICALS AG, priority 2006, published 2010).
pIC50: −log10 of the molar value. Converted amounts (≈) assume the structure as drawn.

Assays:
[1] = Plasma protein binding assay (equilibrium dialysis); assay type: in vitro ADME; conditions: 37° C., extrapolated fraction unbound
Description: Equilibrium dialysis is used to determine the extent of binding of a compound to plasma proteins. A semi-permeable membrane separates a protein-containing compartment from a protein-free compartment. The system is allowed to equilibrate at 37° C. The test compound present in each compartment is quantified by LC-MS/MS. The extent of binding is reported as a fraction unbound (fu) value which is calculated as fu=1−(PC−PF)/PC. PC=Test compound concentration in protein-containing compartment. PF=Test compound concentration in protein-free compartment. In addition to using whole plasma, the plasma protein binding assay can be performed using two other ratios of plasma (10% or 50% plasma in buffer v/v). The following equations are used to convert from a fraction unbound at 10% or 50% to a fraction unbound at 100%: […]

Caco-2 permeability = assay type: in vitro ADME; conditions: human, apical to basolateral
Description: Caco-2 cells are widely used as an in vitro model for predicting human drug absorption. The Caco-2 cell line is derived from a human colorectal carcinoma, and when cultured, the cells spontaneously differentiate into monolayers of polarised enterocytes. The cells are seeded on Transwell™ plates and form a confluent monolayer over 20 days prior to the experiment. On day 20, the test compound is added to the apical side of the membrane and the transport of the compound across the monolayer is monitored over a 2 hour time period. To study drug efflux, it is also necessary to investigate transport of the compound from the basolateral compartment to the apical compartment. The permeability coefficient (Papp) is calculated from the following equation: […]
Where dQ/dt is the rate of permeation of the drug across the cells, CO is the donor compartment concentration at time zero and A is the area of the cell monolayer.

[2] = biological target: T1, human FXRalpha ligand binding domain (LBD) (Homo sapiens, UniProt Q96RI1); experiment: FRET activity assay (ligand mediated cofactor peptide interaction, LANCE); assay type: biochemical; conditions: GST-FXR-LBD / biotinylated SRC-1 peptide (676-700)
T1 construct: made in house; host or cells: E. coli BL21(DE3), vector pDEST15
T1 sequence (Q96RI1 187-472 isoform Q96RI1-2): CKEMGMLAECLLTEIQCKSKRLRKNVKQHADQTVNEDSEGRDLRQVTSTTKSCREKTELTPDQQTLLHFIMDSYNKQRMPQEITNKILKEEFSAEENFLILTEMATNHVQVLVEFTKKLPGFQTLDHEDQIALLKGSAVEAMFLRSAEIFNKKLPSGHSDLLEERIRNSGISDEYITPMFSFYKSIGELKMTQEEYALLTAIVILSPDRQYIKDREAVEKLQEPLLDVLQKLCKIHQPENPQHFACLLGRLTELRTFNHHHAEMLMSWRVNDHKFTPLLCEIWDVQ
Description: Determination of a ligand mediated cofactor peptide interaction to quantify ligand binding to the nuclear receptor Farnesoid X Receptor (FXR) was performed as follows:
Preparation of human farnesoid X receptor (FXR) alpha ligand binding domain: The human FXRalpha ligand binding domain (LBD) was expressed in E. coli strain BL21(DE3) as an N-terminally glutathione-[…] (GST) tagged fusion protein. The DNA encoding the FXR ligand binding domain was cloned into vector pDEST15 (Invitrogen). Expression was under control of an IPTG inducible T7 promoter. The amino acid boundaries of the ligand binding domain were amino acids 187-472 of Database entry NM_005123 (RefSeq). Expression and purification of the FXR-LBD: An overnight preculture of a transformed E. coli strain was diluted 1:20 in LB-Ampicillin medium and grown at 30° C. to an optical density of OD600=0.4-0.6. Gene expression was then induced by addition of 0.5 mM IPTG. Cells were incubated an additional 6 h at 30° C., 180 rpm. Cells were collected by centrifugation (7000×g, 7 min, room temperature). Per liter of original cell culture, cells were resuspended in 10 ml lysis buffer (50 mM Glucose, 50 mM Tris pH 7.9, 1 mM EDTA and 4 mg/ml lysozyme) and left on ice for 30 min. Cells were then subjected to sonication and cell debris removed via centrifugation (22000×g, 30 min, 4° C.). Per 10 ml of supernatant 0.5 ml prewashed Glutathione 4B sepharose slurry (Qiagen) was added and the suspension kept slowly rotating for 1 h at 4° C. Glutathione 4B sepharose beads were pelleted by centrifugation (2000 g, 15 sec, 4° C.) and washed twice in wash buffer (25 mM Tris, 50 mM KCl, 4 mM MgCl2 and 1M NaCl). The pellet was resuspended in 3 ml elution buffer per liter of original culture (elution buffer: 20 mM Tris, 60 mM KCl, 5 mM MgCl2 and 80 mM glutathione added immediately prior to use as powder). The suspension was left rotating for 15 min at 4° C., the beads pelleted and eluted again with half the volume of elution buffer than the first time. The eluates were pooled and dialysed overnight in 20 mM Hepes buffer (pH 7.5) containing 60 mM KCl, 5 mM MgCl2 as well as 1 mM dithiothreitol and 10% (v/v) glycerol. The protein was analysed by SDS-Page.
The method measures the ability of putative ligands to modulate the interaction between the purified bacterial expressed FXR ligand binding domain (LBD) and a synthetic biotinylated peptide based on residues 676-700 of SRC-1 (LCD2, 676-700). The sequence of the peptide used was B-[…]-COOH where the N-terminus was biotinylated (B). The ligand binding domain (LBD) of FXR was expressed as fusion protein with GST in BL-21 cells using the vector pDEST15. Cells were lysed by sonication, and the fusion proteins purified over glutathione sepharose (Pharmacia) according to the manufacturers instructions. For screening of compounds for their influence on the FXR-peptide interaction, the Perkin Elmer LANCE technology was applied. This method relies on the binding dependent energy transfer from a donor to an acceptor fluorophor attached to the binding partner of interest. For ease of handling and reduction of background from compound fluorescence LANCE technology makes use of generic fluorophore labels and time resolved detection Assays were done in a final volume of 2 5 μl in a 384 well plate, in a Tris-based buffer (20 mM Tris-HCl pH 7,5; 60 mM KCl, 5 mM MgCl2; 35 ng/μl BSA), containing 20-60 ng/well recombinantly expressed FXR-LBD fused to GST, 200-600 nM N-terminally biotinylated peptide, representing SRC1 aminoacids 676-700, 200 ng/well Streptavidin-xIAPC conjugate(Prozyme) and 6-10 ng/well Eu W1024 antiGST (Perkin Elmer). DMSO content of the samples was kept at 1%. After generation of the assay mix and diluting the potentially FXR modulating ligands, the assay was equilibrated for one hour in the dark at room temperature in FIA-plates black 384 well (Greiner). […]

[3] = Aqueous solubility assay, Protocol A, nephelometry method; assay type: physicochemical; conditions: PBS with 5% DMSO, aqueous with cosolvent or surfactant or cyclodextrin, kinetic from dmso stock, PBS pH 7.4, 5% DMSO, 23° C., 24 hours, read-out: Aqueous solubility pH 7.4
Description: Aqueous solubility of compounds was determined by nephelometry or by the shake-flask method as follows:
Protocol A, nephelometry method:
Solubility of compounds was measured in PBS (pH 7.4), 5% DMSO at 23° C. Nepheloskan Ascent (Thermo Electron Corporation) nephelometer was used for measurement of light scattering. Tested compounds were dissolved in DMSO to 10 mM. Prior to measurement the compounds were further diluted with PBS in the wells to final compound concentrations of 100, 70, 50, 35, 25, 17, 12 and <10 μg/ml.
The plates were incubated at room temperature for 24 hours to reach equilibrium and the scattered light was measured. Assay validation: Aqueous solubility of acetylsalicylic acid was determined to validate the assay.
The following compounds of Table 2 exemplify such solubility with “−−” meaning solubility<2 μM, “+” meaning 2 μM solubility 100 μM and “++” meaning solubility

[4] = Rat microsomal stability assay; assay type: in vitro ADME; conditions: liver microsomes, 37° C., NADPH, 45 minute, read-out: Rat liver microsome clearance
Description: Compound stability towards rat liver microsomes was determined as follows: The microsomes are incubated with the test compound at 37° C. in the presence of the co-factor, NADPH, which initiates the reaction. The reaction is terminated by the addition of methanol. Following centrifugation, the supernatant is analysed on the LC-MS/MS. The disappearance of test compound is monitored over a 45 minute time period. The In peak area ratio (compound peak area/internal standard peak area) is plotted against time and the gradient of the line determined. Finally, Intrinsic clearance CLint is computed by the following equations: elimination rate konstant (k)=−gradient; t1/2 (min)=0.693/k; V (μl/mg)=volume of incubation (μl)/protein in incubation (mg); CLint (μl/min/mg protein)=V*0.693/t1/2.

fraction unbound [1]	Papp A→B at 2 h (Caco-2 permeability) [×10⁻⁶ cm/s]	pIC50 [2]	solubility at 24 h [3] [µM]	microsomal CLint [4] [µL/min/mg]	melting point	Compound
0.0009	46	≥ 6.00			166.8 to 167.8 °C	CC(C)c1onc(-c2c(Cl)cccc2Cl)c1COc1ccc(N(C)C(=O)c2ccc(C(=O)N(C)C)cc2)c(C(F)(F)F)n1 [Example 24]
		5.00 to 6.00		55		Cc1cc(OCc2c(-c3c(Cl)cccc3Cl)noc2C(C)C)cnc1N(C)C(=O)c1ccc(C(=O)O)cc1 [Example 26, 4-((5-((3-(2,6-dichlorophenyl)-5-isopropylisoxazol-4-yl)methoxy)-3-methylpyridin-2-yl)(methyl)carbamoyl)benzoic acid]
		≥ 6.00			259.1 to 260.1 °C	CC(C)c1onc(-c2c(Cl)cccc2Cl)c1COc1ccc(NCc2ccc(C(=O)O)cc2)c(C(F)(F)F)n1 [Example 27, 4-((6-((3-(2,6-Dichlorophenyl)-5-isopropylisoxazol-4-yl)methoxy)-2-(trifluoromethyl)pyridin-3-ylamino)methyl)benzoic acid]
		≥ 6.00			218 to 219 °C	CC(C)c1nnn(-c2c(Cl)cccc2Cl)c1COc1ccc(N(C)C(=O)c2ccc(C(=O)O)cc2)c(C(F)(F)F)n1 [Example 29, 4-((6-((1-(2,6-Dichlorophenyl)-4-isopropyl-1H-1,2,3-triazol-5-yl)methoxy)-2-(trifluoromethyl)pyridin-3-yl)(methyl)carbamoyl)benzoic acid]
		≥ 6.00			127.8 to 128.8 °C	Cc1nc(OCc2c(C(C)C)nnn2-c2c(Cl)cccc2Cl)ccc1N(C)S(=O)(=O)c1ccc(C(=O)O)cc1 [Example 30, 4-(N-(6-((1-(2,6-dichlorophenyl)-4-isopropyl-1H-1,2,3-triazol-5-yl)methoxy)-2-methylpyridin-3-yl)-N-methylsulfamoyl)benzoic acid]
		≥ 6.00				CC(C)c1onc(-c2c(Cl)cccc2Cl)c1COc1ccc(N(C)Cc2ccc(C(=O)NCCN(C)C)cc2)c(C(F)(F)F)n1 [Example 37, 4-(((6-((3-(2,6-Dichlorophenyl)-5-isopropylisoxazol-4-yl)methoxy)-2-(trifluoromethyl)pyridin-3-yl)(methyl)amino)methyl)-N-(2-(dimethylamino)ethyl)benzamide]

The next lines start with the molecule.

Compound	fraction unbound [1]	Papp A→B at 2 h (Caco-2 permeability) [×10⁻⁶ cm/s]	pIC50 [2]	solubility at 24 h [3] [µM]	microsomal CLint [4] [µL/min/mg]	melting point
Cc1onc(-c2c(Cl)cccc2Cl)c1COc1ccc(NC(=O)c2cccc(C(=O)O)c2)cc1 [Compound C, reference compound]	0.0001	0.6				
CC(C)c1onc(-c2c(Cl)cccc2Cl)c1COc1ccc(NC(=O)c2ccc(C(=O)O)cc2)c(C(F)(F)F)n1 [Example 6, N-{6-[3-(2,6-dichloro-phenyl)-5-isopropyl-isoxazol-4-ylmethoxy]-2-trifluoromethyl-pyridin-3-yl}-terephthalamic acid]	0.0005	34	≥ 6.00	> 100		
Cc1onc(-c2c(Cl)cccc2Cl)c1COc1ccc(NC(=O)c2cccc(C(=O)O)c2)cn1 [Example 15, 3-(6-((3-(2,6-dichlorophenyl)-5-methylisoxazol-4-yl)methoxy)pyridin-3-ylcarbamoyl)benzoic acid]	0.0003		5.00 to 6.00		149	
Cc1cc(OCc2c(-c3c(Cl)cccc3Cl)noc2C(C)C)cnc1NC(=O)c1ccc(C(=O)O)cc1 [Example 19, N-(5-[3-(2,6-Dichloro-phenyl)-5-isopropyl-isoxazol-4-ylmethoxy]-3-methyl-pyridin-2-yl)-terephthalamic acid]	0.003		≥ 6.00		57	218 °C
CC(C)c1onc(-c2c(Cl)cccc2Cl)c1COc1ccc(NC(=O)c2cccc(C(=O)O)c2)c(C(F)(F)F)n1 [Example 21]			≥ 6.00	> 100		153.8 to 154.8 °C
CC(C)c1onc(-c2c(Cl)cccc2Cl)c1COc1ccc(N(C)C(=O)c2ccc(C(N)=O)cc2)c(C(F)(F)F)n1 [Example 23, N^1-(6-((3-(2,6-Dichlorophenyl)-5-isopropylisoxazol-4-yl)methoxy)-2-(trifluoromethyl)pyridin-3-yl)-N^1-methylterephthalamide]			≥ 6.00	2 to 100 (≈ 1.21 to 60.7 µg/mL)		229 °C (dec.)
